The values below come from patent US11535598B2, “Histone deacetylases (HDACs) inhibitors” (ANNJI PHARMACEUTICAL CO., LTD., priority 2017, dated 2022).

Some results are limits rather than exact numbers.

One series concerns the target Human HDAC11 (Homo sapiens (Human), UniProt Q96DB2). Description: HDAC enzymatic assay, HDAC11. Type of series: biochemical. Particulars: 10-dose IC50 mode with a 3-fold serial dilution; read-out: HDAC subtypes IC50 HDAC11. Here is the method:
(§1) The IC50 values for aforementioned compounds against HDACs were determined. HDAC 1 to 11 can be assayed by using acetylated AMC-labeled peptide substrate.
(§2) Human HDAC1 GenBank Accession No. NM_004964): Full length with C-terminal GST tag, MW=79.9 kDa, Human HDAC2 (GenBank Accession No. Q92769): Full length with C-terminal His tag, MW=60 kDa. Human HDAC3/NcoR2 (GenBank Accession No. […] for HDAC3, GenBank Accession No. NM_006312 for NcoR2): Complex of human HDAC3, full length with C-terminal His tag, MW=49.7 kDa, and human NCOR2, N-terminal GST tag, MW=39 kDa. Human HDAC6 (GenBank Accession No. BC069243): Full length with N-terminal GST tag, MW=159 kDa. Human HDAC8 (GenBank Accession No. NM018486): Full length, MW=42 kDa, expressed in an E. coli expression system.
(§3) Human HDAC1, Human HDAC2, Human HDAC3/NcoR2, Human HDAC6, Human HDAC10, and Human HDAC11 were all expressed by baculovirus expression system in Sf9 cells.
(§4) 50 μM HDAC substrate. 1% DMSO final. Incubation for 2 hours at 30° C.

The next series concerns A549. Particulars: human, 72 h.
Another series has as its system LNCap. The following applies: human, 72 h.
The subject of another series is HL60. Nature of the series: Cell proliferation assay MTT, HL60. Particulars: read-out: Cytotoxicity IC50 Leukemia HL60, 72 hr treated.
The subject of the next series is PANC1. Particulars: human, 72 h.
Another series concerns MV4-11. Nature of the series: Cell proliferation assay MTT, MV4-11. The following applies: human, MV4-11 leukemia cells, 72 h.
The next series deals with MOLM13. Description: Cell proliferation assay MTT, MOLM13. The following applies: human, MOLM13 leukemia cells, 72 h.
The target in another series is Human HDAC8 (Homo sapiens (Human), UniProt Q9BY41). Nature of the series: HDAC enzymatic assay, HDAC8. Format: biochemical. Particulars: 10-dose IC50 mode with a 3-fold serial dilution; read-out: HDAC subtypes IC50 HDAC8. The protocol:
as §1, §2, §4

In the next series the target is Human HDAC1 (Homo sapiens (Human), UniProt Q13547). Nature of the series: HDAC enzymatic assay, HDAC1. Particulars: 10-dose IC50 mode with a 3-fold serial dilution; read-out: HDAC subtypes IC50 HDAC1. Type of series: biochemical. The protocol:
as §1, §2, §3, §4

The test system of another series is HepG2. The following applies: human, 72 h.
In a further series the test system is U87MG. The following applies: human, 72 h.
In another series the target is Human HDAC6 (Homo sapiens (Human), UniProt Q9UBN7). Nature of the series: HDAC enzymatic assay, HDAC6. Type of series: biochemical. Particulars: 10-dose IC50 mode with a 3-fold serial dilution; read-out: HDAC subtypes IC50 HDAC6. The protocol: as §1, §2, §3, §4
Chain of Human HDAC6 (Q9UBN7 whole entry): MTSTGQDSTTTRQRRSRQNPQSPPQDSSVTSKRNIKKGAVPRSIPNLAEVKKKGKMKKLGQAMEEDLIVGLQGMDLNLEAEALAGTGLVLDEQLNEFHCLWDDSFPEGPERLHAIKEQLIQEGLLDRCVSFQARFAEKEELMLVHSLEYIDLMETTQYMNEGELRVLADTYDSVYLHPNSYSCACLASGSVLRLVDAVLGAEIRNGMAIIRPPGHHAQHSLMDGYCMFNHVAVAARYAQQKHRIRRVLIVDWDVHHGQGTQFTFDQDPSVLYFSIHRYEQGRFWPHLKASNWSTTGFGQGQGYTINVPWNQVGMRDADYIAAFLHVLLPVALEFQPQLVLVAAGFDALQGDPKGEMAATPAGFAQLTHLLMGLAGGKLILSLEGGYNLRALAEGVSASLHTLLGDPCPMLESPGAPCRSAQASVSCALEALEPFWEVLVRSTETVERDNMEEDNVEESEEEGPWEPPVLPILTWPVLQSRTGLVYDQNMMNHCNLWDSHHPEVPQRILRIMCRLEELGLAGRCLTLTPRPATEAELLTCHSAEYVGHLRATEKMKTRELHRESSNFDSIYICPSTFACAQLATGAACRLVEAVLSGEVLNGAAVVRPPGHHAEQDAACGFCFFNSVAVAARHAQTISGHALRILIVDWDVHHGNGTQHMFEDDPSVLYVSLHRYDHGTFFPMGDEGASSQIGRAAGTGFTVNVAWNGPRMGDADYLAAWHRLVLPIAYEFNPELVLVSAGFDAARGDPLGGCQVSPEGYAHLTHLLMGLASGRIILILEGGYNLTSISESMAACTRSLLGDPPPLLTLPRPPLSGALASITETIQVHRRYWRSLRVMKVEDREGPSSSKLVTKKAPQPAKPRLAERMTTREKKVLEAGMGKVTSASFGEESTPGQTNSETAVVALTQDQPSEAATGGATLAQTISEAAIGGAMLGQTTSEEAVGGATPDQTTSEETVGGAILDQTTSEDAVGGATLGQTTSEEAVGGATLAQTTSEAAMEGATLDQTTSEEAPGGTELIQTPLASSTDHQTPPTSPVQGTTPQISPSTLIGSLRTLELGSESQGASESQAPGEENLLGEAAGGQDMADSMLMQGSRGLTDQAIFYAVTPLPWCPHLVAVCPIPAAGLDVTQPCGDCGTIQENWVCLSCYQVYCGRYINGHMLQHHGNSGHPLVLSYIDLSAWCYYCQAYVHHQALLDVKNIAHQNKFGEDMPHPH
The nature of series [1]: in vitro. The following applies: human.
Protocol: (§5) Cells were seeded in 96-well plates at a density of 5×10^3 cells per well and allowed to attach for 24 h before compound treatment. […] At end of the treatment period 72 h, 20 μl (5 mg/mL) 3-(4,5-dimethylthiazol-2-yl)-2,5-diphenyl-tetrazolium bromide (MTT) reagent was added each well. After 4 h incubation at 37° C., the supernatant was aspirated and the formazan crystals were dissolved in 100 μl of DMSO at 37° C. for 10 min with gentle agitation. The absorbance was measured at 570 nm using the Molecular Devices Microplate Reader. […] IC50 values were calculated from the relative viability values and concentrations by regression analysis.
Series [2] in a line: in vitro. Particulars: monkey.
Protocol: as §5

Chain of Human HDAC8 (Q9BY41 whole entry): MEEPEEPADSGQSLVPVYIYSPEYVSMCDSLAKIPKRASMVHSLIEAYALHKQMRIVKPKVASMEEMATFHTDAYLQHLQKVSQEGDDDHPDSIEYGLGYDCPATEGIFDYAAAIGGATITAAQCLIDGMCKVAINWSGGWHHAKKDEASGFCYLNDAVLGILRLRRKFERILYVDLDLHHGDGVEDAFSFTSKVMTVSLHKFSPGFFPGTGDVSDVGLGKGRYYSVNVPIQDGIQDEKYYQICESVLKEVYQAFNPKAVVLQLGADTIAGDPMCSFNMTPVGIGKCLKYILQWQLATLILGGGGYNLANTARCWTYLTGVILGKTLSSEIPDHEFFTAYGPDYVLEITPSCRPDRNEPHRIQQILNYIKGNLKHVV
Chain of Human HDAC11 (Q96DB2 whole entry): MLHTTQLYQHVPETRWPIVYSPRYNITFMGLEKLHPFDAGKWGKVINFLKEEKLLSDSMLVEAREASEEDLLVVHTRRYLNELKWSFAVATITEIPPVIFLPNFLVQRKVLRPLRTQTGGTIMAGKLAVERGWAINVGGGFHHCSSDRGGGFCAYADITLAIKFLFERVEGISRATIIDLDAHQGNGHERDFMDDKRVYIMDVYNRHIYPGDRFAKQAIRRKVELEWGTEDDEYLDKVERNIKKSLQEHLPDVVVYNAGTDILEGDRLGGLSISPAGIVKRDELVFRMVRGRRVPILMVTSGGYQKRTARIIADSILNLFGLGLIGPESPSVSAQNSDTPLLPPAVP
Chain of Human HDAC1 (Q13547 whole entry): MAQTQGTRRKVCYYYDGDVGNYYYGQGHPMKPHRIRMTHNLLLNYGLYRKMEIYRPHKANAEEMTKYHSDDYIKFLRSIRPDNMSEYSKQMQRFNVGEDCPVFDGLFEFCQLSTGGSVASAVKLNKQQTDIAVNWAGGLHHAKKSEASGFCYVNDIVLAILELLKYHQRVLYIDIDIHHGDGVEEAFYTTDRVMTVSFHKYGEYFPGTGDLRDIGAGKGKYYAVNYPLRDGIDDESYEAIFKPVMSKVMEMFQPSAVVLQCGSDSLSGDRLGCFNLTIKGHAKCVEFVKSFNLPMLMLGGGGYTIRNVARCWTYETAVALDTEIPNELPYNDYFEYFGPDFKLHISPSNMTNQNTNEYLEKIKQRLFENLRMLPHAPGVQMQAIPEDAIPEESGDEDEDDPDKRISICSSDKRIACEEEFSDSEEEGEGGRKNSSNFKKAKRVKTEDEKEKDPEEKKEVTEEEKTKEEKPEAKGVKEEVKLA
Protocol for A549: as §5
Protocol for HL60: as §5
Protocol for HepG2: as §5
Protocol for LNCap: as §5
Protocol for MOLM13: as §5
Protocol for MV4-11: as §5
Protocol for PANC1: as §5
Protocol for U87MG: as §5

For `O=C(NO)c1ccc(Cn2c(=O)n(CCc3ccc(F)cc3)c(=O)c3ccccc32)cc1` [Compound 14, 4-((3-(4-fluorophenethyl)-2,4-dioxo-3,4-dihydroquinazolin-1(2H)-yl)methyl)-N-hydroxybenzamide], the IC50 on Human HDAC11 was 14.7 µM; with A549, 6.35 ± 0.11 µM; with LNCap it was 4.25 ± 0.21 µM; in the series on HL60, 1.37 ± 0.07 µM; in the series with PANC1 it was above 10 µM; in the series on MV4-11, 1.77 ± 0.05 µM. Further, the half-inhibitory concentration (IC50) with MOLM13 is 1.62 ± 0.09 µM; at Human HDAC8 it was 1.05 µM; at Human HDAC1, 10.8 µM; with HepG2 it was 6.82 ± 0.12 µM; in the series with U87MG, 6.31 ± 0.63 µM; on Human HDAC6, 0.023 µM. Moreover, the figures for the IC50 at 72 h in “in vitro [1]” and in “in vitro [2]” were 83.81 ± 0.19 µM and 116 ± 0.23 µM, respectively.
Turning to `O=C(NO)c1ccc(Cn2c(=O)n(CCc3ccccc3)c(=O)c3cc(F)ccc32)cc1` [Compound 17, 4-((6-fluoro-2,4-dioxo-3-phenethyl-3,4-dihydroquinazolin-1(2H)-yl)methyl)-N-hydroxybenzamide], the concentration for half-maximal inhibition (IC50) was found to be 16.7 µM at Human HDAC11; 8.96 ± 0.17 µM with A549; 5.74 ± 0.51 µM with LNCap; 2.37 ± 0.11 µM in the series on HL60; 8.47 ± 0.04 µM in the series with PANC1; 3.13 ± 0.09 µM with MV4-11. The IC50 with MOLM13 is 356 ± 0.09 µM; at Human HDAC8, 1.16 µM; on Human HDAC1, 13.4 µM; in the series on HepG2 it was 6.64 ± 0.92 µM; in the series on U87MG, 6.13 ± 0.78 µM; at Human HDAC6, 0.057 µM. For the same compound, the IC50 at 72 h in “in vitro [1]” was found to be 100.5 ± 0.37 µM; in “in vitro [2]” it was 123.2 ± 0.33 µM.
For `O=C(NO)c1ccc(Cn2c(=O)n(CCc3cccc(F)c3)c(=O)c3ccccc32)cc1` [Compound 26, 4-((3-(3-fluorophenethyl)-2,4-dioxo-3,4-dihydroquinazolin-1(2H)-yl)methyl)-N-hydroxybenzamide], the IC50 on Human HDAC11 came to 10.7 µM; in the series with A549, 4.58 ± 0.21 µM; with LNCap it was 0.96 ± 0.02 µM; with HL60, 3.12 ± 0.08 µM; in the series on PANC1, 5.03 ± 0.19 µM; in the series with MV4-11, 3.71 ± 0.11 µM. Further, the half-inhibitory concentration (IC50) came to 4.01 ± 0.06 µM with MOLM13; 0.428 µM at Human HDAC8; 13.2 µM at Human HDAC1; 4.03 ± 0.11 µM in the series on HepG2; 3.77 ± 0.25 µM in the series on U87MG; 0.01 µM on Human HDAC6. Besides, the IC50 at 72 h in “in vitro [1]” came to 84.34 ± 0.73 µM; in the series “in vitro [2]”, 93.26 ± 0.25 µM.
For the compound `O=C(NO)c1ccc(Cn2c(=O)n(CCc3ccccc3)c(=O)c3ccc(Cl)cc32)cc1` [Compound 8, 4-((7-chloro-2,4-dioxo-3-phenethyl-3,4-dihydroquinazolin-1(2H)-yl)methyl)-N-hydroxybenzamide], the IC50 in the series with A549 was 2.28 ± 0.27 µM; in the series on LNCap, 1.07 ± 0.14 µM; in the series with HL60, 0.44 ± 0.04 µM; in the series on PANC1, 3.52 ± 0.09 µM; with MV4-11, 0.37 ± 0.02 µM; with MOLM13 it was 0.48 ± 0.08 µM. In addition, the half-maximal inhibitory concentration (IC50) on Human HDAC8 was found to be 1.64 µM; at Human HDAC1 it was 9.54 µM; in the series with HepG2, 2.74 ± 0.29 µM; in the series on U87MG, 2.1 ± 0.06 µM; on Human HDAC6, 0.021 µM. The IC50 at 72 h came to 75.79 ± 0.12 µM in “in vitro [1]” and 85.74 ± 0.17 µM in “in vitro [2]”.
`O=C(Cc1ccc(Cn2c(=O)n(CCc3ccccc3)c(=O)c3ccccc32)cc1)NO` [Compound 16, 2-(4-((2,4-dioxo-3-phenethyl-3,4-dihydroquinazolin-1(2H)-yl)methyl)phenyl)-N-hydroxyacetamide]: the IC50 is 7.07 ± 0.42 µM in the series with A549; 6.05 ± 0.31 µM with LNCap; 2.77 ± 0.04 µM in the series on HL60; 8.73 ± 0.24 µM with PANC1; 3.04 ± 0.08 µM in the series with MV4-11; 3.29 ± 0.16 µM in the series with MOLM13. For the same compound, the IC50 is 6.99 ± 1.07 µM with HepG2 and 6.28 ± 0.12 µM in the series on U87MG. The results for the IC50 at 72 h in the series “in vitro [1]” and in “in vitro [2]” were 163.2 ± 0.27 µM and 160.3 ± 0.23 µM, respectively.
As to `N#Cc1ccc2c(=O)n(CCc3ccccc3)c(=O)n(Cc3ccc(CC(=O)NO)cc3)c2c1` [Compound 23, 2-(4-((7-cyano-2,4-dioxo-3-phenethyl-3,4-dihydroquinazolin-1(2H)-yl)methyl)phenyl)-N-hydroxyacetamide], the IC50 with A549 was found to be 4.21 ± 0.03 µM; in the series with LNCap, 4.05 ± 0.07 µM; with HL60, 1.25 ± 0.08 µM; with PANC1, 5.12 ± 0.11 µM; with MV4-11, 1.19 ± 0.07 µM; with MOLM13, 2.32 ± 0.07 µM. For the same compound, the figures for the IC50 in the series on HepG2 and with U87MG were 4.24 ± 0.03 µM and 4.12 ± 0.06 µM, respectively. Further, the IC50 at 72 h in the series “in vitro [1]” was 92.11 ± 0.69 µM; in the series “in vitro [2]”, 95.27 ± 0.58 µM.
As for `O=C(NO)c1ccc(Cn2c(=O)n(CCc3ccccc3)c(=O)c3ccc(O)cc32)cc1` [Compound 4, N-hydroxy-4-((7-hydroxy-2,4-dioxo-3-phenethyl-3,4-dihydroquinazolin-1(2H)-yl)methyl)benzamide], the IC50 amounted to 5.5 µM at Human HDAC11; 8.04 ± 0.28 µM in the series with A549; 2.97 ± 0.22 µM in the series on LNCap; 0.67 ± 0.09 µM in the series with HL60; 6.54 ± 0.11 µM in the series on PANC1; 0.75 ± 0.11 µM in the series with MV4-11. In addition, the 50% inhibitory concentration (IC50) is 0.81 ± 0.09 µM with MOLM13; 2.75 µM at Human HDAC8; 8.28 µM at Human HDAC1; 6.12 ± 0.33 µM in the series with HepG2; 4.28 ± 0.67 µM with U87MG; 0.028 µM at Human HDAC6. Also, the IC50 at 72 h in the series “in vitro [1]” came out at 147.1 ± 0.51 µM; in the series “in vitro [2]”, 156.4 ± 0.42 µM.
`O=C(Cc1ccc(Cn2c(=O)n(CCc3ccccc3)c(=O)c3ccccc32)c(F)c1)NO` [Compound 19, 2-(4-((2,4-dioxo-3-phenethyl-3,4-dihydroquinazolin-1(2H)-yl)methyl)-3-fluorophenyl)-N-hydroxyacetamide]: the half-inhibitory concentration (IC50) in the series with A549 came out at 2.98 ± 0.12 µM; with LNCap, 1.87 ± 0.18 µM; in the series on HL60, 1.68 ± 0.09 µM; in the series with PANC1, 4.29 ± 0.08 µM; with MV4-11, 1.87 ± 0.03 µM; with MOLM13, 1.74 ± 0.08 µM. For the same compound, the half-inhibitory concentration (IC50) in the series with HepG2 came out at 2.75 ± 0.02 µM; in the series on U87MG, 2.64 ± 0.04 µM. Also, the IC50 at 72 h in the series “in vitro [1]” was 32.7 ± 0.03 µM; in “in vitro [2]”, 37.82 ± 0.03 µM.
Regarding `Cc1ccc2c(=O)n(CCc3ccccc3)c(=O)n(Cc3ccc(C(=O)NO)cc3)c2c1` [Compound 22, N-hydroxy-4-((7-methyl-2,4-dioxo-3-phenethyl-3,4-dihydroquinazolin-1(2H)-yl)methyl)benzamide], the IC50 at Human HDAC11 was found to be 52.1 µM; in the series on A549, 7.44 ± 0.12 µM; with LNCap it was 5.38 ± 0.41 µM; in the series with HL60, 1.46 ± 0.08 µM; in the series on PANC1 it was 8.73 ± 0.71 µM; with MV4-11, 1.64 ± 0.07 µM. The IC50 is 1.77 ± 0.05 µM in the series with MOLM13; 2.52 µM on Human HDAC8; 10.9 µM on Human HDAC1; 6.82 ± 0.44 µM in the series on HepG2; 5.68 ± 0.19 µM in the series with U87MG; 0.17 µM on Human HDAC6. The IC50 at 72 h in “in vitro [1]” was determined as 135.1 ± 0.39 µM; in the series “in vitro [2]” it was 127.4 ± 0.28 µM.

One may read the IC50 as the point on the concentration scale where inhibition reaches its midpoint.
